This is an account of results in patent US20100048729A1, “Composition based on xanthoxyline and its use in cosmetic” (PIERRE FABRE DERMO-COSMETIQUE, priority 2006, published 2010).

One assay deals with Penicillium expansum. The following applies: literature; cited from earlier work.
For another assay, the system named is Candida albicans. The following applies: literature; cited from earlier work.
In assay [1] the test system is gram-positive and gram-negative bacteria. The following applies: literature; cited from earlier work.
Assay [2] deals with 3T3F442A preadipocytes. The assay is described as follows: Adipocyte differentiation: triglyceride accumulation (Adipored) in differentiated 3T3F442A cells. In kind it is cell-based. The following applies: 168 h, 0.3 μg/ml, 7 days differentiation, FIG. 2, read-out: inhibition (accumulation of triglycerides), optimum activity. The protocol: The Applicant has studied on the one hand the effect of a dry extract of Zanthoxylum bungeanum, and on the other hand the effect of xanthoxyline, on the process of adipocyte differentiation and proliferation. […] 3T3F442A prepadipocytes are capable of differentiating into adipocytes in the presence of insulin, 3-isobutyl-1-methylxanthine and dexamethasone (the Journal of Pharmacology and Experimental Therapeutics: RIVAL Y., 2004, 311(2): 467-475). […] 3T3F442A cells are cultured in DMEM medium (GIBCOBRL, ref 32430-027) containing 10% foetal calf serum at 37° C., 5% CO2 in a humid atmosphere. They are seeded at 5000 cells per well (96-well plate). […] The visualisation and quantification of intracellular lipid vacuoles in the differentiated cells are analysed using Adipored reagent, a fluorescent colorant specific to triglycerides (neutral and amphiphilic lipids) (Journal of Cell Biology: […]., 1985, 100: 965-973). The culture medium is removed and the cells are rinsed with phosphate buffer D-PBS (GIBCOBRL, ref 21300-058). Adipored reagent is then added. After incubation for 10 minutes at ambient temperature, the fluorescence is measured (excitation 485 nm, emission 530 nm). A histological analysis using a confocal Laser microscope (ZEISS LSM 410 Invert Laser scan Microscope) is also carried out at 543 nm.

Assay [3] deals with pathogenic fungi such as Trichophyton. The following applies: literature; cited from earlier work.
Assay [4] deals with 3T3F442A preadipocytes. The following applies: adipocyte differentiation model over a long culture period; literature; cited from earlier work.

Broadly, the inhibition is the relative decrease from the control value, in per cent. With `COc1cc(O)c(C(C)=O)c(OC)c1` [Xanthoxyline, 4,6-dimethoxy-2-hydroxyacetophenone], the Anti-fungal activity entry (with Penicillium expansum; in the assay on Candida albicans; in assay [3]) was “moderate” each time. In addition, the Anti-bacterial activity result in assay [1] is recorded as “mediocre”. For the same compound, in the assay on 3T3F442A preadipocytes [2], the inhibition at 0.3 µg/mL was determined as 12%.
For TNFα, in the assay on 3T3F442A preadipocytes [4], the “inhibition of the accumulation of triglycerides” value is reported as “known to inhibit the accumulation of triglycerides”.
